The values that follow come from ChEMBL document CHEMBL1155290, “Synthesis and anti-HIV activity evaluation of 2-(4-(naphthalen-2-yl)-1,2,3-thiadiazol-5-ylthio)-N-acetamides as novel non-nucleoside HIV-1 reverse transcriptase inhibitors” (Eur J Med Chem, 2009).

Data set [1] is described as follows: Cytotoxicity against human MT4 cells as reduction in cell viability after 5 days by MTT assay. The class given is cell-based.
Data set [2] can be described thus: Selective index, ratio of CC50 for human MT4 cells to EC50 for HIV1 3B.

Usually CC50 stands for the concentration at which the toxic effect on the cells reaches its halfway point. Low values mean harm at low concentration, high ones better tolerance by the cells. For `CC(C)Nc1cccnc1N1CCN(C(=O)c2cc3cc(NS(C)(=O)=O)ccc3[nH]2)CC1` [DELAVIRDINE], in data set [1], the CC50 at 120 h was more than 3.83 µM. Moreover, the “Ratio CC50/EC50” value in data set [2] is on record as more than 12.

For the molecule `O=C1Nc2ccc(Cl)cc2[C@@](C#CC2CC2)(C(F)(F)F)O1` [EFAVIRENZ], the CC50 at 120 h in data set [1] was more than 6.34 µM. Moreover, in data set [2], the “Ratio CC50/EC50” value is more than 1434.

As for `Cc1ccnc2c1NC(=O)c1cccnc1N2C1CC1` [NEVIRAPINE], in data set [1], the CC50 at 120 h was more than 15 µM. Regarding `Cc1cn([C@H]2C[C@H](N=[N+]=[N-])[C@@H](CO)O2)c(=O)[nH]c1=O` [ZIDOVUDINE], the CC50 at 120 h in data set [1] is more than 93.5 µM. Besides, the “Ratio CC50/EC50” value in data set [2] was more than 6192.
